# Where two headings read alike, the source gives them in different places.
# Experiments:
# Format in all cases: cell-based
# [1] = system: Enterococcus faecalis (EFA); assay: MIC, two-fold agar dilution (CLSI), clinical isolates
# Summary of the method: (§1)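 Test samples were assayed by the CLSI-recommended two-fold agar dilution method, and the minimum inhibitory concentration against each tested strain was determined.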
# [2] = system: Enterococcus faecium (EFM); assay: as above
# Summary of the method: as §1
# [3] = system: Escherichia coli (including ESBLs, non-ESBLs); assay: as above
# Summary of the method: as §1
# [4] = system: Moraxella catarrhalis (BCA); assay: as above; conditions: for Anti-bacterial activity (MIC), strain BCA 14-10: clinical isolate BCA 14-10
# Summary of the method: as §1
# [5] = system: Streptococcus pneoumoniae (SPN); assay: as above
# Summary of the method: as §1
# [6] = system: methicillin-resistant Staphylococcus aureus (MRSA); assay: as above
# Summary of the method: as §1
# [7] = system: methicillin-resistant Staphylococcus epidermidis (MRSE); assay: as above
# Summary of the method: as §1
# [8] = system: methicillin-sensitive Staphylococcus aureus (MSSA); assay: as above
# Summary of the method: as §1
# [9] = system: methicillin-sensitive Staphylococcus epidermidis (MSSE); assay: as above
# Summary of the method: as §1
# [10] = system: HCT-116 colorectal cancer cell line; assay: CCK-8 proliferation inhibition; conditions: 72 hours, CCK-8; for inhibition at 30 µM: HCT-116, 72 h
# Summary of the method: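 2000 cells/well, McCoy's 5A + 10% newborn bovine serum; overnight attach, 37° C./5% CO2. Cpd from DMSO stock diluted in medium, 72 h. Readout: CCK-8 (1:10). Ctrl 1‰ DMSO.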
# [11] = system: A549 lung cancer cell line; assay: CCK-8 proliferation inhibition; conditions: Homo sapiens; for inhibition at 30 µM: A549, 72 h, concentration of 30 μM
# From the text: (§2) 2. The present invention adopts the CCK-8 method to determine the proliferation inhibition effect of the spiro three-membered ring, spiro five-membered ring peptide deformylase inhibitor as described in Examples 1-80 against colorectal cancer cells, lung cancer cells, gastric cancer cells, liver cancer cells, and the like. […] The compound having the best activity synthesized in Example 64 was further tested for its inhibitory activity against other tumor cells including T cell leukemia, acute myeloid leukemia, cervical cancer, breast cancer, prostate cancer and osteosarcoma, and the like (see Table 7).
# (§3) (1) HCT-116 colorectal cancer cell line, A549 lung cancer cell line, MGC-803 gastric cancer cell line, BEL-7402 liver cancer cell line, Jurkat T cell leukemia cell line, HL60 acute myeloid leukemia cell line, Hela cervical cancer cell line, MCF-7 breast cancer cell line, PC3 prostate cancer cell line and SAOS-2 osteosarcoma cell line were made into single cell suspension, 180 μL of which was inoculated into 96-well culture plate, which was cultured overnight in CO2 incubator (37° C., 5% CO2, 95% air).
# (§4) (2) Each of the spiro three-membered ring, spiro five membered ring peptide deformylase inhibitors was dissolved in DMSO, and was further formulated into drug solution with required different final concentration using corresponding cell culture medium. The drug solutions were added to the above cells respectively (20 μL/well), with the control group added with 1‰ DMSO, and cultured in a CO2 incubator for 72 hours.
# (§5) (3) After incubation for 72 hours, the culture solution was decanted, and 100 μL of 1:10 diluted CCK-8 solution was added.
# (§6) Wherein, in step (1), the concentration of the single cell suspension was 2000 cells/well.
# (§7) Wherein, in step (2), HCT-116 cells were cultured in McCoy's 5A medium (containing 10% newborn bovine serum, 1% double antibody); A549 and PC3 cells were cultured in F12 medium (containing 10% newborn bovine serum, 1% double antibody); MGC-803, BEL-7402, SAOS-2, Jurkat and HL60 cells were cultured in 1640 medium (containing 10% newborn bovine serum, 1% double antibody); and MCF-7 and Hela cells were cultured in DMEM high glucose medium (containing 10% newborn bovine serum, 1% double antibody).
# [12] = system: BEL-7402 liver cancer cell line; assay: CCK-8 proliferation inhibition
# From the text: as §2, §3, §4, §5, §6, §7
# [13] = system: MGC-803 gastric cancer cell line; assay: CCK-8 proliferation inhibition
# From the text: as §2, §3, §4, §5, §6, §7
# [14] = concentration of 30 μM, 72 hours, 30 µM
compound,measurement,setting,value
"Cc1cnc(NC(=O)[C@@H]2CC3(CC3)CN2C(=O)[C@H](CC2CCCC2)CN(O)C=O)s1 [Example 29, (S)-5-((R)-3-cyclopentylmethyl-2-((N-hydroxyformamido)methyl)propionyl)-N-(5-methylthiazol-2-yl)-5-spiro[2.4]heptane-6-carboxamide]",MIC (anti-bacterial activity),[1]; strain EFA 15-1,4 µg/mL
same,MIC (anti-bacterial activity),[1]; strain EFA 15-2,4 µg/mL
same,MIC (anti-bacterial activity),[1]; strain EFA 15-3,1 µg/mL
same,MIC (anti-bacterial activity),[1]; strain EFA 15-4,4 µg/mL
same,MIC (anti-bacterial activity),[1]; strain EFA 15-5,4 µg/mL
same,MIC (anti-bacterial activity),[1]; strain EFA 15-6,4 µg/mL
same,MIC (anti-bacterial activity),[1]; strain EFA 15-9,2 µg/mL
same,MIC (anti-bacterial activity),[2]; strain EFM 15-1,1 µg/mL
same,MIC (anti-bacterial activity),[2]; strain EFM 15-2,1 µg/mL
same,MIC (anti-bacterial activity),[2]; strain EFM 15-3,0.5 µg/mL
same,MIC (anti-bacterial activity),[2]; strain EFM 15-4,1 µg/mL
same,MIC (anti-bacterial activity),[2]; strain EFM 15-5,1 µg/mL
same,MIC (anti-bacterial activity),[2]; strain EFM 15-6,1 µg/mL
same,MIC (anti-bacterial activity),[3]; strain ECO+ 15-1,16 µg/mL
same,MIC (anti-bacterial activity),[3]; strain ECO+ 15-2,32 µg/mL
same,MIC (anti-bacterial activity),[3]; strain ECO+ 15-3,16 µg/mL
same,MIC (anti-bacterial activity),[3]; strain ECO+ 15-4,16 µg/mL
same,MIC (anti-bacterial activity),[3]; strain ECO− 15-1,16 µg/mL
same,MIC (anti-bacterial activity),[3]; strain ECO− 15-2,16 µg/mL
same,MIC (anti-bacterial activity),[3]; strain ECO− 15-3,32 µg/mL
same,MIC (anti-bacterial activity),[3]; strain ECO− 15-4,16 µg/mL
same,"Anti-bacterial activity (MIC), strain BCA 14-10",[4],0.25 µg/mL
same,MIC (anti-bacterial activity),[4]; strain BCA 14-1,0.5 µg/mL
same,MIC (anti-bacterial activity),[4]; strain BCA 14-4,0.5 µg/mL
same,MIC (anti-bacterial activity),[4]; strain BCA 14-5,0.125 µg/mL
same,MIC (anti-bacterial activity),[4]; strain BCA 14-6,0.25 µg/mL
same,MIC (anti-bacterial activity),[4]; strain BCA 14-7,0.125 µg/mL
same,MIC (anti-bacterial activity),[4]; strain BCA 14-8,0.25 µg/mL
same,MIC (anti-bacterial activity),[5]; strain SPN 16-4,4 µg/mL
same,MIC (anti-bacterial activity),[6]; strain MRSA 15-1,0.125 µg/mL
same,MIC (anti-bacterial activity),[6]; strain MRSA 15-2,0.125 µg/mL
same,MIC (anti-bacterial activity),[6]; strain MRSA 15-3,0.06 µg/mL
same,MIC (anti-bacterial activity),[6]; strain MRSA 15-4,0.125 µg/mL
same,MIC (anti-bacterial activity),[7]; strain MRSE 15-1,0.06 µg/mL
same,MIC (anti-bacterial activity),[7]; strain MRSE 15-2,0.125 µg/mL
same,MIC (anti-bacterial activity),[7]; strain MRSE 15-3,0.125 µg/mL
same,MIC (anti-bacterial activity),[7]; strain MRSE 15-7,0.125 µg/mL
same,MIC (anti-bacterial activity),[8]; strain MSSA 15-3,0.125 µg/mL
same,MIC (anti-bacterial activity),[8]; strain MSSA 15-4,0.125 µg/mL
same,MIC (anti-bacterial activity),[8]; strain MSSA 15-5,0.125 µg/mL
same,MIC (anti-bacterial activity),[8]; strain MSSA 15-6,0.125 µg/mL
same,MIC (anti-bacterial activity),[9]; strain MSSE 15-3,0.125 µg/mL
same,MIC (anti-bacterial activity),[9]; strain MSSE 15-4,0.125 µg/mL
same,MIC (anti-bacterial activity),[9]; strain MSSE 15-5,0.125 µg/mL
same,MIC (anti-bacterial activity),[9]; strain MSSE 15-6,0.06 µg/mL
same,IC50,"[10]; Homo sapiens, HCT-116",8.96 µM
same,HCT116 inhibition rate/%,"[10]; concentration of 30 μM, 30 µM",94%
same,inhibition at 30 µM,[11],36%
same,IC50,"[11]; A549, 72 hours",13.6 µM
same,IC50,"[12]; Homo sapiens, Bel-7402, 72 hours",7.57 µM
same,"Inhibition of proliferation, Liver cancer BEL-7402",[12]; [14],79%
same,IC50,"[13]; Homo sapiens, MGC-803, 72 hours",7.84 µM
same,"Inhibition of proliferation, Gastric cancer MGC-803",[13]; [14],78%
"O=CN(O)C[C@@H](CC1CCCC1)C(=O)N1CC2(CC2)C[C@H]1C(=O)NC1CC1 [Example 32, (S)-5-((R)-3-cyclopentyl-2-((N-hydroxyformamido)methyl)propionyl)-N-cyclopropyl-5-azaspiro[2.4]heptane-6-carboxamide]",MIC (anti-bacterial activity),[1]; strain EFA 15-1,8 µg/mL
same,MIC (anti-bacterial activity),[1]; strain EFA 15-2,8 µg/mL
same,MIC (anti-bacterial activity),[1]; strain EFA 15-3,8 µg/mL
same,MIC (anti-bacterial activity),[1]; strain EFA 15-4,8 µg/mL
same,MIC (anti-bacterial activity),[1]; strain EFA 15-5,8 µg/mL
same,MIC (anti-bacterial activity),[1]; strain EFA 15-6,8 µg/mL
same,MIC (anti-bacterial activity),[1]; strain EFA 15-9,8 µg/mL
same,MIC (anti-bacterial activity),[2]; strain EFM 15-1,4 µg/mL
same,MIC (anti-bacterial activity),[2]; strain EFM 15-2,4 µg/mL
same,MIC (anti-bacterial activity),[2]; strain EFM 15-3,1 µg/mL
same,MIC (anti-bacterial activity),[2]; strain EFM 15-4,4 µg/mL
same,MIC (anti-bacterial activity),[2]; strain EFM 15-5,4 µg/mL
same,MIC (anti-bacterial activity),[2]; strain EFM 15-6,4 µg/mL
same,MIC (anti-bacterial activity),[3]; strain ECO+ 15-1,32 µg/mL
same,MIC (anti-bacterial activity),[3]; strain ECO+ 15-2,> 32 µg/mL
same,MIC (anti-bacterial activity),[3]; strain ECO+ 15-3,> 32 µg/mL
same,MIC (anti-bacterial activity),[3]; strain ECO+ 15-4,32 µg/mL
same,MIC (anti-bacterial activity),[3]; strain ECO− 15-1,32 µg/mL
same,MIC (anti-bacterial activity),[3]; strain ECO− 15-2,> 32 µg/mL
same,MIC (anti-bacterial activity),[3]; strain ECO− 15-3,> 32 µg/mL
same,MIC (anti-bacterial activity),[3]; strain ECO− 15-4,> 32 µg/mL
same,"Anti-bacterial activity (MIC), strain BCA 14-10",[4],1 µg/mL
same,MIC (anti-bacterial activity),[4]; strain BCA 14-1,4 µg/mL
same,MIC (anti-bacterial activity),[4]; strain BCA 14-4,4 µg/mL
same,MIC (anti-bacterial activity),[4]; strain BCA 14-5,2 µg/mL
same,MIC (anti-bacterial activity),[4]; strain BCA 14-6,8 µg/mL
same,MIC (anti-bacterial activity),[4]; strain BCA 14-7,1 µg/mL
same,MIC (anti-bacterial activity),[4]; strain BCA 14-8,8 µg/mL
same,MIC (anti-bacterial activity),[5]; strain SPN 16-2,1 µg/mL
same,MIC (anti-bacterial activity),[5]; strain SPN 16-4,8 µg/mL
same,MIC (anti-bacterial activity),[6]; strain MRSA 15-1,1 µg/mL
same,MIC (anti-bacterial activity),[6]; strain MRSA 15-2,1 µg/mL
same,MIC (anti-bacterial activity),[6]; strain MRSA 15-3,1 µg/mL
same,MIC (anti-bacterial activity),[6]; strain MRSA 15-4,1 µg/mL
same,MIC (anti-bacterial activity),[7]; strain MRSE 15-1,1 µg/mL
same,MIC (anti-bacterial activity),[7]; strain MRSE 15-2,2 µg/mL
same,MIC (anti-bacterial activity),[7]; strain MRSE 15-3,8 µg/mL
same,MIC (anti-bacterial activity),[7]; strain MRSE 15-7,8 µg/mL
same,MIC (anti-bacterial activity),[8]; strain MSSA 15-3,2 µg/mL
same,MIC (anti-bacterial activity),[8]; strain MSSA 15-4,1 µg/mL
same,MIC (anti-bacterial activity),[8]; strain MSSA 15-5,1 µg/mL
same,MIC (anti-bacterial activity),[8]; strain MSSA 15-6,2 µg/mL
same,MIC (anti-bacterial activity),[9]; strain MSSE 15-3,2 µg/mL
same,MIC (anti-bacterial activity),[9]; strain MSSE 15-4,2 µg/mL
same,MIC (anti-bacterial activity),[9]; strain MSSE 15-5,2 µg/mL
same,MIC (anti-bacterial activity),[9]; strain MSSE 15-6,2 µg/mL
same,inhibition at 30 µM,"[10]; Homo sapiens, concentration of 30 μM, Table 5, read-out: Inhibition of proliferation, Colorectal cancer HCT116",≥ 30%
same,inhibition at 30 µM,"[10]; Homo sapiens, concentration of 30 μM, read-out: HCT116 inhibition rate/%",30%
same,inhibition at 30 µM,[11],14%
same,inhibition at 30 µM,"[12]; Homo sapiens, Bel-7402, 72 h, concentration of 30 μM",46%
same,inhibition at 30 µM,"[13]; Homo sapiens, MGC-803, 72 h, concentration of 30 μM",14%

# Reference: US10738028B2, “Spiro three-membered ring, spiro five-membered ring peptide deformylase inhibitor and use thereof in antibacteria and anti-tumor” (priority 2016, dated 2020)
